# Results reported in US20070099915A1, “INHIBITORS OF THE HIV INTEGRASE ENZYME” (PFIZER INC., priority 2005, published 2007).
# What was measured:
# [1] = target: T1, Full-length wild type HIV-1 integrase (SF1) (Human immunodeficiency virus type 1 group M subtype B, UniProt P04585); experiment: Integrase strand-transfer scintillation proximity assay; assay type: biochemical; details: strand-transfer SPA, 246 nM integrase, 50 nM host DNA, 37° C., 50 min; read-out: IC50
# T1 construct: made in house; host or cells: E. coli BL21 (DE3)
# [2] = test system: HIV-1 RF virus in CEM-SS cells; experiment: HIV-1 cell protection assay (XTT dye reduction); assay type: cell-based; details: Human immunodeficiency virus 1, 144 h; RF strain of HIV-1, CEM-SS cells, XTT read-out after six days; read-out: EC50
# Outline: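 Infected CEM-SS cultures incubated six days, then XTT with phenazine methosulfate added for 4 h; viability read as formazan absorbance at 450 nm. Formazan expressed as percent of uninfected, compound-free cells; CC50 from uninfected treated cells, therapeutic index as CC50/EC50.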
# HIV-1 = HIV-1 infected patients; S. Little et al., CROI 2005, Abstract 161; cited from earlier work
SMILES,IC50 [1] [nM],EC50 [2] [nM],clinical efficacy in the treatment of HIV-infected patients (HIV-1)
"CN1CCN(CCCc2cn(Cc3ccc(F)cc3)c3cnc4c(c23)CCN(O)C4=O)CC1=O [Example 127, 3-(4-fluorobenzyl)-7-hydroxy-1-[3-(4-methyl-3-oxopiperazin-1-yl)propyl]-3,7,8,9-tetrahydro-6H-pyrrolo[2,3-c]-1,7-naphthyridin-6-one]",14,40,–
"O=C1c2ncc3c(c(CCCOCCN4CCOCC4)cn3Cc3ccc(F)cc3)c2CCN1O [Example 128, 3-(4-fluorobenzyl)-7-hydroxy-1-[3-(2-morpholin-4-ylethoxy)propyl]-3,7,8,9-tetrahydro-6H-pyrrolo[2,3-c]-1,7-naphthyridin-6-one]",21,5,–
O=C(NCc1ccc(F)cc1)c1nc(N2CCCCS2(=O)=O)c2cccnc2c1O [Example L-000870810],–,–,showed clinical efficacy
